Patent publication US20040058056A1, “Drug diffusion coatings, applications and methods” (priority 2003, published 2004)
Values belong to the compound of their own block, whether it stands above or below them.

Experiments:
Type in all cases: physicochemical
[1] = Elution of rapamycin from TMCTS plasma-coated stainless steel coupons in porcine serum
Experimental: The elution time of rapamycin from the surface of stainless steel coupons was evaluated as a function of plasma deposition time. One side of stainless steel coupons was coated with 100±10 μg of rapamycin dissolved in chloroform (0.2%, w/v). After air drying at room temperature, the coated surfaces were plasma coated with TMCTS. The plasma was generated at 83 W and 55 mTorr with a mass flow rate of 84 sccm at various time lengths between 30 and 300 seconds. The coated coupons were extracted with porcine serum mixed with 0.02% NaN3 as the preservative at 37° C. The remaining amounts of the drug on the coupon was extracted with 2 ml of methanol for 2 hours at room temperature and assayed by HPLC at 277 nm, utilizing an HPLC system calibrated with known amounts of rapamycin.

[2] = Elution of NPC-15199 from PHEMA-coated stainless steel coupons with TMCTS plasma membrane; conditions: buffered saline pH 7.4, room temperature
Experimental: N-(9-fluorenylmethoxycarbonyl)-L-leucine (NPC-15199), an anti-inflammatory drug, was coated on a stainless steel coupon by dip-coating the coupon in a mixture of 20 mM NPC-15199 in a 60:40 solution of acetone:water containing 7.5% poly(2-hydroxyethyl methacrylate) (“PHEMA”). The coupon was then air dried for about 5 minutes at approximately 60° C. TMCTS plasma was deposited on different NPC-15199 coated coupons for 20, 40, 60 and 80 seconds, respectively. […] at pH 7.4 at room temperature. Elution of NPC-15199 was measured by change in absorbance using a spectrophotometer.
The plasma was generated at 83 W and 55 mTorr with a mass flow rate of 84 sccm; under these conditions a micro-thin siloxane membrane is deposited on the targeted surface, with the thickness directly related to the length of time of plasma deposition.

[3] = Elution of daunomycin from PHEMA-coated stainless steel coupons with TMCTS plasma membrane; conditions: buffered saline pH 7.4; absorbance at 480 nm; different TMCTS plasma deposition times
Experimental: Before drug application and plasma coating to 0.71 cm×0.71 cm 316 stainless steel coupon surfaces, all the coupons were cleaned with Acationox detergent, rinsed exhaustively with water, and air-dried. The coupons were then dip-coated in 80% ethanol containing 5% PHEMA and 5 mg/ml of daunomycin. After dipping, the coupons were wicked to remove excess solution, and air-dried under a gentle flow of warm air. Thereafter, the coated coupons were stored in the dark. The drug-coated coupons were then plasma-deposited with TMCTS for varying amounts of time. The plasma was generated at 83 W and 55 mTorr with a mass flow rate of 84 sccm of TMCTS monomer vapor. The coating thickness could be precisely controlled by plasma deposition time, with a coating thickness in the range of 5 to 200 nm.
The coupons were eluted in buffered saline at pH 7.4. The eluted drug was measured spectrophotometrically at 480 nm for daunomycin. The absorbance change was proportional to the concentration of daunomycin.

% Remaining ([1]; 0 (uncoated) TMCTS deposition, elution time 0 hours): 100%
% Remaining ([1]; 0 (uncoated) TMCTS deposition, elution time 17 hours, porcine serum 37° C.): 0%
% Remaining ([1]; TMCTS deposition 30 seconds, elution time 64 hours, porcine serum 37° C.): 2.6%
Estimated Half-Life ([1]; TMCTS deposition 30 seconds, porcine serum 37° C.): 12 h
% Remaining ([1]; TMCTS deposition 60 seconds, elution time 64 hours, porcine serum 37° C.): 33.2%
Estimated Half-Life ([1]; TMCTS deposition 60 seconds, porcine serum 37° C.): 41 h
% Remaining ([1]; TMCTS deposition 120 seconds, elution time 47.5 hours, porcine serum 37° C.): 67.7%
Estimated Half-Life ([1]; TMCTS deposition 120 seconds, porcine serum 37° C.): 84 h
% Remaining ([1]; TMCTS deposition 180 seconds, elution time 24 hours, porcine serum 37° C.): 76.3%
Estimated Half-Life ([1]; TMCTS deposition 180 seconds, porcine serum 37° C.): 94 h
% Remaining ([1]; TMCTS deposition 240 seconds, elution time 24 hours, porcine serum 37° C.): 93.6%
Estimated Half-Life ([1]; TMCTS deposition 240 seconds, porcine serum 37° C.): 211 h
% Remaining ([1]; TMCTS deposition 300 seconds, elution time 47.5 hours, porcine serum 37° C.): 91.9%
Estimated Half-Life ([1]; TMCTS deposition 300 seconds, porcine serum 37° C.): 360 h
SMILES: CO[C@H]1C[C@@H]2CC[C@@H](C)[C@@](O)(O2)C(=O)C(=O)N2CCCC[C@H]2C(=O)O[C@H]([C@H](C)C[C@@H]2CC[C@@H](O)[C@H](OC)C2)CC(=O)[C@H](C)/C=C(\C)[C@@H](O)[C@@H](OC)C(=O)[C@H](C)C[C@H](C)/C=C/C=C/C=C/1C [rapamycin]

SMILES: CC(C)C[C@H](NC(=O)OCC1c2ccccc2-c2ccccc21)C(=O)O [NPC-15199, N-(9-fluorenylmethoxycarbonyl)-L-leucine]
T1/2 (half-elution time) ([2]; TMCTS plasma deposition time 20 seconds): 0.833 min
T1/2 (half-elution time) ([2]; TMCTS plasma deposition time 40 seconds): 1.67 min
T1/2 (half-elution time) ([2]; TMCTS plasma deposition time 60 seconds): 2.5 min
T1/2 (half-elution time) ([2]; TMCTS plasma deposition time 80 seconds): 4 min

SMILES: COc1cccc2c1C(=O)c1c(O)c3c(c(O)c1C2=O)C[C@@](O)(C(C)=O)C[C@@H]3O[C@H]1C[C@H](N)[C@H](O)[C@H](C)O1 [daunomycin]
drug diffusion time [3]: controlled by the TMCTS coating thickness
